Data taken from ChEMBL document CHEMBL4373747 (ACS Med Chem Lett, 2020).

Experiments:
MV4-11 [1] = test: Induction of apoptosis in human MV4-11 cells assessed as late apoptotic cells at 2 uM incubated for 18 hrs by annexin V FITC and PI based flow cytometry (reference value: 9.2 to 9.63 %); assay type: functional
MOLM-13 = test: Cytotoxicity against human MOLM13 cells assessed as reduction in cell viability incubated for 72 hrs by cell-titer blue assay; assay type: functional, cell-based; conditions: MOLM-13, 72 h
[2] = molecular target: T1, Protein deacetylase HDAC6 (Homo sapiens) (UniProt Q9UBN7); test: Inhibition of HDAC6 in human MV4-11 cells assessed as increase in acetylated alpha-tubulin incubated for 6 hrs by Western blot analysis; assay type: cell-based
T1 sequence (whole entry): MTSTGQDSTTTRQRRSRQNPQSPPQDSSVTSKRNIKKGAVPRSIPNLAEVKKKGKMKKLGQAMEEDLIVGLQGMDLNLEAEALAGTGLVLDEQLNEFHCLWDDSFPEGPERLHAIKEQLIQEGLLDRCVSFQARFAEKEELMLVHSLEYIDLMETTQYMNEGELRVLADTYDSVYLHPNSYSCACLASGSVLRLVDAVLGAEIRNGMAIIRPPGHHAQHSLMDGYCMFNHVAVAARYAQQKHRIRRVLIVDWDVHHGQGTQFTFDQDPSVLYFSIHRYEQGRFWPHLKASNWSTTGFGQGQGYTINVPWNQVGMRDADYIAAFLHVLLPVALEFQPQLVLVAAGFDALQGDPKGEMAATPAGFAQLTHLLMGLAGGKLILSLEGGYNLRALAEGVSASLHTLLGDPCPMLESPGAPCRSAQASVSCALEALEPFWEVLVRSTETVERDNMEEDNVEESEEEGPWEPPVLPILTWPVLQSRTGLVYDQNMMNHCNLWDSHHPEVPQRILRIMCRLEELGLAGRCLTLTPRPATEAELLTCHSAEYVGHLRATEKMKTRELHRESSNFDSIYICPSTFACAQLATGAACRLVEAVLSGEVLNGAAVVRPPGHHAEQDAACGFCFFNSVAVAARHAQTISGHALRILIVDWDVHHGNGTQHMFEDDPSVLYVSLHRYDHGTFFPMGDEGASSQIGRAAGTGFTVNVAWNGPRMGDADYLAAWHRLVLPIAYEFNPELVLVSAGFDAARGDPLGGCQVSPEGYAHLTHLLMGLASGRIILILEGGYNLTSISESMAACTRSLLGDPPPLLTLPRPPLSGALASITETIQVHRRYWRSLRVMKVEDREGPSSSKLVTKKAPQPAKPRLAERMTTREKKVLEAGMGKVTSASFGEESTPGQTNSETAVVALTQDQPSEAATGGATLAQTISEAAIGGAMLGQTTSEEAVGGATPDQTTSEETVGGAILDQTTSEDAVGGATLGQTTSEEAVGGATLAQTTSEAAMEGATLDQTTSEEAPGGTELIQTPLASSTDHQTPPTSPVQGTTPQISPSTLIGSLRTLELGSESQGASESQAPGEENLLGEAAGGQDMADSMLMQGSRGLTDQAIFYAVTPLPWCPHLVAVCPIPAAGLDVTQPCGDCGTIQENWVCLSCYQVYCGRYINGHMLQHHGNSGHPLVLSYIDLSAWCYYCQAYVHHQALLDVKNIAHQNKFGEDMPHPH

Histone deacetylase 1 = Histone deacetylase 1 (Homo sapiens, UniProt Q13547); test: Inhibition of recombinant full length human HDAC1 expressed in baculovirus infected Sf9 cells using FAM-RHKK-Ac as substrate incubated for 17 hrs by electrophoretic mobility shift assay
Histone deacetylase 2 = Histone deacetylase 2 (Homo sapiens, UniProt Q92769); test: Inhibition of recombinant full length human HDAC2 expressed in baculovirus infected Sf9 cells using FAM-RHKK-Ac as substrate incubated for 17 hrs by electrophoretic mobility shift assay
MV4-11 [3] = test: Induction of apoptosis in human MV4-11 cells assessed as early apoptotic cells at 1 uM incubated for 18 hrs by annexin V FITC and PI based flow cytometry (reference value: 19.46 to 22.17 %); assay type: functional
[4] = Protein binding in CD-1 mouse plasma at 1 uM incubated for 6 hrs by LCMS analysis; assay type: ADME, cell-free; conditions: CD-1, mouse, read-out: PPB (converted)
HeLa = test: Cytotoxicity against human HeLa cells assessed as reduction in cell viability incubated for 72 hrs by cell-titer blue assay; assay type: functional, cell-based
MV4-11 [5] = test: Induction of apoptosis in human MV4-11 cells assessed as viable cells at 0.5 uM incubated for 18 hrs by annexin V FITC and PI based flow cytometry (reference value: 53.01 to 53.07 %); assay type: functional; conditions: Homo sapiens, MV4-11, 18 h; read-out: Activity
[6] = Efflux ratio of apparent permeability in human Caco2 cells incubated for 2 hrs by LC/MS analysis; assay type: ADME, cell-based, Caco-2; conditions: Caco-2

Histone deacetylase 2, sequence (Q92769 whole entry): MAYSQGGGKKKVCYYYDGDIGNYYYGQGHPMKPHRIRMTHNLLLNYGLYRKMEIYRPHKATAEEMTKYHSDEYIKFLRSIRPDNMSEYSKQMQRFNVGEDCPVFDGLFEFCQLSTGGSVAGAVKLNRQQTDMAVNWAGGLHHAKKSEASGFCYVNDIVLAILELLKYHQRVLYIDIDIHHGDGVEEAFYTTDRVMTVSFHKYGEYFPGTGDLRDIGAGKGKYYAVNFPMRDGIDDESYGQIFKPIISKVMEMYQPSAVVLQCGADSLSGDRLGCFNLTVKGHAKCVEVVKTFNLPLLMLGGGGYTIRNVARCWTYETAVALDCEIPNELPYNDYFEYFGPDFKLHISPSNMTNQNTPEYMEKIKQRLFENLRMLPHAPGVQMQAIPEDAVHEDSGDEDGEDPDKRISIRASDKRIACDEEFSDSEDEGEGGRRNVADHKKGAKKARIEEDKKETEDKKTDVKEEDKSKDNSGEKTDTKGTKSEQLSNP
Histone deacetylase 1, sequence (Q13547 whole entry): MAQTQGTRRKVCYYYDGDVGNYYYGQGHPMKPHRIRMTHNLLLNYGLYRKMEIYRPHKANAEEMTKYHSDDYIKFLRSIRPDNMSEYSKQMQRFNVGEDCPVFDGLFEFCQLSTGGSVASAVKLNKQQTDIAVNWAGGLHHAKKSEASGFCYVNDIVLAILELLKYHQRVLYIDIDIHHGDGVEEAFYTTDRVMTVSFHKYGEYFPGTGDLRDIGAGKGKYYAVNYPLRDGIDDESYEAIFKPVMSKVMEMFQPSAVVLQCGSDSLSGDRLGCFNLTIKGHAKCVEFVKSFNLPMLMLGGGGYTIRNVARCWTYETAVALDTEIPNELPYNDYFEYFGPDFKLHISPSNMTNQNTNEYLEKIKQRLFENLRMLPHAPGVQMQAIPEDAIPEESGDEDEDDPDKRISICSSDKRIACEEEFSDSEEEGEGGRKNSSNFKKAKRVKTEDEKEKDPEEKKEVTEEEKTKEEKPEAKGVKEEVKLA

For CC(C)(C)c1ccc(C(=O)Nc2ccc(C(=O)NO)cc2)cc1, the Activity (MV4-11 [1]) was 30.97%, the IC50 (MOLM-13) was 6000 nM and the inhibition [2] was “Dose-dependent effect”. The IC50 (Histone deacetylase 1) was 605 nM, the IC50 (Histone deacetylase 2) was over 1000 nM and the Activity (MV4-11 [3]) was 29.78%. For the same compound, the fraction unbound at 6 h, 1 µM [4] was 0.047, the IC50 (HeLa) was 2530 nM and the viability at 0.5 µM (MV4-11 [5]) was 48.7%. The efflux ratio at 2 h [6] was 0.64.
